What all share (experiment): NCI tumour cell line growth inhibition, 48 h
Assay [1] has as its system OVCAR-3 ovarian.
The test system of assay [2] is SR leukemia.
Assay [3] has as its system HOP-92 NSCLC.
The test system of assay [4] is MDA-N.
Assay [5] has as its system HL-60(TB) leukemia.
Assay [6] relates to COLO 205 colon.
Assay [7] relates to A549 NSCLC.
Assay [8] deals with HCC-2998 colon.
Assay [9] deals with UO-31 renal.
Assay [10] relates to CAKI-1 renal.

13 molecules from PubChem BioAssay (NCI) can be followed below.

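48-hour exposure; five concentrations; linearly interpolated endpoints. Definition used: TGI = concentration required for complete inhibition of growth.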

Consider `CSC(=S)N/N=C(\C)c1ccc(S(=O)(=O)N(C)c2ccccc2)cc1`, for which the TGI in [1], in [2], in assay [3], in [4], in assay [5] and in assay [6] was greater than 100 µM throughout. In addition, the TGI in assay [7], in assay [8], in assay [9] and in assay [10] was greater than 100 µM throughout.

As for `COc1ccc2c(c1)/C(=C\c1c(Cl)nc3sc(C)cn13)C(=O)N2`, the TGI in assay [1] was determined as 8.83 µM; in [2] it was 15.6 µM; in assay [3], 23.1 µM; in assay [4] it was 2.04 µM; in assay [5] it was 6.11 µM; in assay [6], 9.45 µM. The TGI in assay [7] was 17 µM; in assay [8] it was 18.3 µM; in assay [9] it was 19 µM; in assay [10], 17.1 µM.

Take `OCCc1ccsc1-c1sc(-c2cc(CCO)c(-c3sccc3CCO)s2)cc1CCO`: the TGI in assay [1] is 32.5 µM; in assay [2] it was greater than 100 µM; in [3] it was 32.6 µM; in assay [4], 63.5 µM; in assay [6], 31 µM; in assay [7] it was greater than 100 µM. Moreover, the TGI in assay [8] was 30.2 µM; in assay [9] it was 31.4 µM; in [10], 44.3 µM.

For `COc1cccc2c(=O)oc(-c3ccc(C(C)(C)C)cc3)nc12`, the TGI in assay [1] is 81.8 µM; in assay [2], 63.1 µM; in assay [3], greater than 100 µM; in assay [4], greater than 100 µM; in assay [5], 44 µM; in assay [6] it was greater than 100 µM. Also, the TGI was greater than 100 µM in assay [7], 33.5 µM in assay [8], greater than 100 µM in [9] and greater than 100 µM in assay [10].

Take `COc1ccc2c(c1)OCC1Cc3ccccc3OC21` (stereo not drawn): the TGI in assay [1] was greater than 100 µM; in [2], greater than 100 µM; in [3], greater than 100 µM; in [4], greater than 10 µM; in assay [5], greater than 100 µM; in assay [6], greater than 100 µM. For the same molecule, the TGI in [7], in assay [8], in [9] and in [10] was greater than 100 µM each time.

In the case of `COC(=O)C1CCC(=O)N1C(c1ccc(OC)cc1)c1ccc2c(c1)OCO2` (stereo not drawn), the TGI is greater than 100 µM in assay [1]; greater than 100 µM in assay [2]; greater than 100 µM in assay [3]; 27.3 µM in assay [4]; 91.2 µM in assay [5]; greater than 100 µM in [6]. Also, the TGI in assay [7], in assay [8], in assay [9] and in assay [10] was greater than 100 µM each time.

For the molecule `CCN(CC)CCn1c(=O)c2cccnc2n2c3c(=O)n(C)c(=O)n(C)c3nc12`, the TGI in [1], in assay [2], in assay [3], in [4], in [5] and in assay [6] was greater than 100 µM throughout. Also, the TGI in assay [7], in assay [8], in [9] and in assay [10] was greater than 100 µM in each case.

Consider `CC(=N/N=C/c1ccccn1)/C(C)=N/N=C(C)/C(C)=N/N=C(C)/C(C)=N/N=C(C)/C(C)=N\N=C\c1ccccn1`, for which the TGI in [1], in assay [2], in [3], in assay [4], in [5] and in assay [6] was greater than 100 µM each time. Besides, the TGI in [7], in [8], in assay [9] and in [10] was greater than 100 µM each time.

Consider `CC1=NN(c2cccc(Cl)c2)C2(C1=C/C=C/c1ccccc1)C(Cl)C(=O)N2c1nc2ccccc2s1` (stereo not drawn), for which the TGI in assay [1] was greater than 80.9 µM; in assay [2] it was 9.54 µM; in [3], greater than 53.2 µM; in [4] it was greater than 100 µM; in assay [5], greater than 68.3 µM; in assay [6] it was greater than 100 µM. The TGI is greater than 100 µM in assay [7], 86.8 µM in [8], greater than 61.2 µM in assay [9] and greater than 49.8 µM in assay [10].

Take `O=C(CC(C(=O)c1ccsc1)c1ccc2c(c1)OCO2)c1ccccc1` (stereo not drawn): the TGI in assay [1], in [2], in [3], in assay [4], in assay [5] and in [6] was greater than 100 µM each time. Moreover, the TGI in [7] is 50.7 µM; in assay [8], greater than 100 µM; in [9] it was greater than 100 µM; in assay [10] it was greater than 100 µM.

With `CC1(C)CCCC2OC2CCC(C)(C)C1=O` (stereo not drawn), the TGI in assay [1], in assay [2], in assay [3], in assay [4], in assay [5] and in assay [6] was greater than 100 µM throughout. The TGI in [7], in [8], in assay [9] and in assay [10] was greater than 100 µM in each case.

As to `NC1=NCC(CN2CCOCC2)O1` (stereo not drawn), the TGI in assay [1], in assay [2], in assay [3], in assay [4], in [5] and in assay [6] was greater than 100 µM in each case. Further, the TGI in assay [7], in [8], in [9] and in [10] was greater than 100 µM each time.

Consider `CC1(C)C2CCC1(C)[C@H](n1c(=O)n([C@@H]3CC4CCC3(C)C4(C)C)c(=O)n([C@@H]3CC4CCC3(C)C4(C)C)c1=O)C2`, for which the TGI is greater than 100 µM in assay [1]; greater than 100 µM in assay [2]; greater than 100 µM in assay [3]; greater than 100 µM in assay [4]; 63.1 µM in assay [5]; greater than 100 µM in [7]. Besides, the TGI is 57.5 µM in assay [8], greater than 100 µM in assay [9] and greater than 100 µM in [10].
